Literature values, collected in US20230115209A1, “[…] PSILOCIN CONTAINING COMPOSITIONS AND METHODS OF USING AND MAKING THE SAME” (Orthogonal Thinker, Inc., priority 2020, published 2023).

Key:
[1] = in vivo
[2] = trace fear conditioning

Structure (SMILES): CN(C)CCc1c[nH]c2cccc(OP(=O)(O)O)c12 [Psilocybin, 4-phosphoryloxy-N,N-dimethyl-tryptamine]
- global neural signal diversity [1]: increase global neural signal diversity
- extinction of the classically conditioned fear response [2]: facilitates extinction of the classically conditioned fear response
